Data as given in patent US20140235445A1, “PESTICIDE COMPOSITIONS INCLUDING POLYMERIC ADJUVANTS” (priority 2009, published 2014).

System: fire ants
Test: fire ant kill test: time to death of all fire ants in a jar coated with dried insecticide composition
Assay type: in vivo
Procedure: In this example a series of commercially available insecticides were tested at various dilution levels and with and without a preferred copolymer, namely the AVAIL® copolymer previously described (a 40%-60% w/w aqueous composition of a saturated sodium salt of a maleic anhydride/itaconic acid copolymer in water). In each set of test runs, the selected insecticide was tested with a population of fire ants in order to determine the time required to kill the entire population.
In particular, in each test run 20 ml of the respective liquid insecticide composition was added to a mason jar and swirled around the inside bottom thereof. The liquid was then poured off and the remainder was allowed to dry on the inner jar surface, creating substantially a monomeric dried layer. The outside neck surface of the jar was then coated in talc, and the open end of the jar was placed into a fire ant nest. The talc coating prevented the aggressive fire ants from climbing the outer surface of the jar. A population of fire ants was thus established in each jar, and the jar was then topped with an apertured mason jar cap. The time to death of all of the fire ants was then recorded.
In each case, the recommended concentration of insecticide was prepared (recorded as “1×”), followed by dilutions with water to create the diluted compositions. Where copolymer was used, the copolymer was added to the insecticide with gentle mixing, at a level of 30 ml per gallon. If desired, lesser amounts of copolymer could be used, e.g., 20 ml per gallon.
In another series of tests, insecticides were tested with various copolymers having different ratios of maleic anhydride and itaconic acid moieties, and at different pH levels. In particular, respective copolymeric compositions were prepared made up ofpolymaleic acid, a 1:3 weight ratio of maleic anhydride to itaconic acid, a 1:1 weight ratio of maleic anhydride to itaconic acid, a 3:1 weight ratio of maleic anhydride to itaconic acid, and a 7:1 weight ratio of maleic anhydride to itaconic acid. Individual portions of each of these copolymers were then pH-modified using sodium hydroxide to provide, for each copolymer, portions with no pH adjustment, and with adjustment to pHs of 6, 7, and 8. These pH-modified test copolymers were then mixed with a 1/100× dilution of malathion at a level of 30 ml of copolymer per gallon of insecticide. Similarly, the same pH-adjusted copolymers were mixed with 1/20× water dilutions of permethrin, again at a level of 30 ml of copolymer per gallon of insecticide.
The test products were then used in the same fire ant kill experiment of Example 1, giving the data of Tables 2 and 3.

[1] = Table 1, insecticide at 1/10X dilution
[2] = Table 1, insecticide at 1/20X dilution, copolymer, where used, 30 ml per gallon
[3] = Table 1, insecticide at 1X (recommended concentration), time to kill entire fire ant population

| Compound | TIME TO DEATH [1] [min] | TIME TO DEATH [2] [min] | TIME TO DEATH (Table 1, insecticide at 1/100X dilution, copolymer, where used, 30 ml per gallon) [min] | TIME TO DEATH [3] [min] | TIME TO DEATH (Table 2, 1/100X malathion, copolymer 30 ml per gallon, no pH adjustment (pH —)) [min] | effect of the copolymer on kill time as compared with the insecticide itself (insecticide with copolymer vs insecticide alone) | TIME TO DEATH (Table 1, insecticide at ⅓X dilution) [min] |
| --- | --- | --- | --- | --- | --- | --- | --- |
| CCOC(=O)CC(SP(=S)(OC)OC)C(=O)OCC (centres unmarked) [malathion, 2-(dimethoxyphosphinothioylthio) butanedioic acid diethyl ester] | 2 | 5 | 30 | 1 | 14 | – | – |
| CCOP(=S)(OCC)Oc1cc(C)nc(C(C)C)n1 [Diazinon®] | – | – | – | – | – | no decrease in kill times | – |
| Cc1c(COC(=O)[C@H]2[C@@H](/C=C(\Cl)C(F)(F)F)C2(C)C)cccc1-c1ccccc1 (stereo in doubt) [bifenthrin, (2-methyl-3-phenylphenyl) methyl (1S,3S)-3-[(Z)-2-chloro-3,3,3-trifluoroprop-1-enyl]-2,2-dimethylcyclopropane-1-carboxylate] | – | 15 | – | – | – | – | – |
| CC1(C)C(C=C(Cl)Cl)C1C(=O)OCc1cccc(Oc2ccccc2)c1 (centres unmarked) [permethrin, (3-phenoxyphenyl) methyl 3-(2,2-dichloroethenyl)-2,2-dimethyl-cyclopropane-1-carboxylate] | 5 | 20 | – | 5 | – | – | 5 |
